Where two headings read alike, the source gives them in different places. Where no end group is shown, it is not given here.
Experiments:
B16F10 murine melanoma [1] = assay: Subcutaneous B16F10 murine melanoma model, cisplatin positive control (separate historical control study); format: in vivo, mice
Description: (§1) B16F10 murine melanoma model is derived from MB16 line by successive selection of metastatic clones. B16F1 to B16F10 (ATCC Number CRL-6475™) were generated, with F10 being passaged in mice for 10 times, and thus highly metastatic. This model is widely used in studying metastasis mechanisms, evaluating cancer therapeutics. It is also one of the most common syngeneic models for cancer immunotherapy. Both subcutaneous and experimental metastasis models are very useful.
(§2) Tumor volumes and body weights were monitored throughout the study. Cisplatin was administered to the positive control group in a separate historical control study. The negative control group was administered with vehicle only in all studies.
B16F10 mice treated with cisplatin typically show reduced tumor volume (FIG. 1A and Table 3).

[2] = system: B16-F10 cells (lung metastases); conditions: for Mean Met Count / Percent Inhibition: Day 16; for Mean Met Count: SR1 220.51 μg/animal sc bid to end, Anti-PD-1-SCE 100 μg/animal ip biwk ×3, combination at the same doses, Cyclophosphamide 300 mg/kg ip Qd ×1; for Percent Inhibition: [1 − (T/C)] × 100, compared to Group 1 (vehicle); for Deaths NTR (non-treatment-related death) / Deaths TR (treatment-related death): n = 10 per group
Protocol: (§3) The animals were fed ad libitum water (reverse osmosis, 1 ppm Cl) and NIH 31 Modified and Irradiated Lab Diet® consisting of 18.0% crude protein, 5.0% crude fat, and 5.0% crude fiber. The mice were housed on irradiated Enrich-o'cobs™ bedding in static microisolators on a 12-hour light cycle at 20-22° C. (68-72° F.) and 40-60% humidity. DRS-NC specifically complies with the recommendations of the Guide for Care and Use of Laboratory Animals with respect to restraint, husbandry, surgical procedures, feed and fluid regulation, and veterinary care. The animal care and use program at DRS-NC is accredited by the Association for Assessment and Accreditation of Laboratory Animal Care International, which assures compliance with accepted standards for the care and use of laboratory animals.
(§4) A sixth group of animals was included as the “look-see” group (n=9). B16-F10 cells were harvested during log-phase growth and resuspended at a concentration of 7.5×10^5 cells/mL in PBS. Each mouse received an intravenous (i.v.) tail vein injection of 1.5×10^5 B16-F10 cells (0.2 mL cell suspension) on D1 of the study.
(§5) Test Articles: Anti-PD1 alpha peptide (coded as anti-PD-1-SCE, Lot. No. 5177/0214) and thymosin alpha-1 peptide (Thymalfasin, code-named SR1, Lot. No. 1402-224). DRS-NC assigned code names for the purpose of confidentiality during in-house testing. […] Dosing was not adjusted per body weight. Anti-PD-1-SCE antibody was diluted in PBS to yield a 10.0 mg/mL dosing solution, which provided a 100 mg/kg dosage in a dosing volume of 10 mL/kg. Dosing was not adjusted per body weight. […] Dosing was adjusted per body weight.
(§6) Endpoint: The endpoint of the B16MET-e117 study was defined as 100 metastases per lung set. Two to three animals from the “look-see” group were euthanized in three days intervals beginning on Day 9 and lung metastatic foci were counted. […] The study was terminated on D16 and all animals were euthanized and their metastases counted. Percent inhibition was defined as the difference between the number of metastatic foci of the designated control group and the number of metastatic foci of the drug-treated group, expressed as a percentage of the number of metastatic foci of the designated control group: % Inhibition=[1−(#Focidrug-treated/#Focicontrol)]×100
(§7) Toxicity: Animals were weighed daily for the first five days of the study and twice weekly thereafter. […] Acceptable toxicity was defined as a group mean body-weight loss of less than 20% during the study and not more than one treatment-related (TR) death among ten treated animals. Any dosing regimen resulting in greater toxicity is considered above the maximum tolerated dose (MTD). A death is classified as TR if attributable to treatment side effects as evidenced by clinical signs and/or necropsy, or if due to unknown causes during the dosing period or within fourteen days of the last dose. A death is classified as non-treatment-related (NTR) if there is no evidence that death was related to treatment side effects.
Statistical and Graphical Analyses: Prism (GraphPad) for Windows 6.02 was used for all graphical presentations and statistical analyses. The Mann-Whitney U-test, for analysis of medians, was used to determine the statistical significance between D16 B16F10 metastatic foci in control and treated groups. Two-tailed statistical analyses were conducted at P=0.05. A “box and whiskers” diagram was constructed to show the distribution of enumerated metastatic foci for each treatment group on D16.
Prism reports results as non-significant (ns) at P>0.05, significant (symbolized by “*”) at 0.01<P≤0.05, very significant (“**”) at 0.001<P≤0.01, and extremely significant (“***”) at P≤0.001.

[3] = system: B16-F10 cells (lung metastases); conditions: for Mean Met Count: Day 15; for Inhibition (%): compared to Group 1; for Deaths NTR / Deaths TR: n = 10
Protocol: as §3, §4, §5, §6, §7
B16F10 Mouse Lung Metastatic Melanoma Model was developed. About 1.5×10^5 B16-F10 cells (0.2 mL cell suspension) were grown in vitro and administered intravenously (Day 0) to female B6D2F1/Crl mice. On Day 1 dosing with test agents initiated.
A “look see”-untreated-group was set to evaluate, over a period of 15 days, the number of metastasis. […] Three days later other three mice were examined. When the met count reached approximately 50-100 counts, all groups in the study were sacrificed and final met counts were established. The “look see” group count was not included in the final efficacy analysis. 50-100 met count defined as the target number because most of the individual metastasis could be count easily and mets were less likely to merge with each other difficulty the counting.

[4] = system: B16F10 Murine Melanoma (lung metastasis foci); assay: Systemic B16F10 murine melanoma model, lung metastasis foci (independent laboratory); format: in vivo, C57BL/6 mice
B16F10 murine melanoma [5] = assay: Subcutaneous B16F10 murine melanoma model, thymosin (Study No. 1 and Study No. 2); format: in vivo, C57BL/6 mice; conditions: for mean tumor size / T/C value: day 14 post tumor inoculation; for tumor growth delay: at tumor size of 1,140 mm^3
Description: as §1
To study the effect of thymosin in treating melanoma, thymosin alpha peptide (ZADAXIN) was administered to mice inoculated with B16F10 in two separate studies:
as §2

IL-1β [6] = assay: Biomarker evaluation in subcutaneous B16F10 murine melanoma model (FIG. 4A); format: in vivo, C57BL/6 mice; conditions: subcutaneously twice a day for 6 days at 0.02, 0.06, 0.2, 0.3, 2, or 6 mg/kg, D4 and D7 after start of dosing
Protocol: (§8) FIG. 4A depicts evaluation of IL-1β in subcutaneous B16F10 murine melanoma model in C57BL/6 mice treated with thymosin. ZADAXIN™ (thymalfasin) was administered to mice subcutaneously twice a day for 6 days at 0.02, 0.06, 0.2, 0.3, 2, or 6 mg/kg 10 μL/g. IL-1β levels were lower in ZADAXIN™ (thymalfasin) treated groups compared to vehicle treated groups at D4 and D7 after start of dosing.
(§9) In the studies described above, a group of potential biomarkers were tested in, including IL-7, 11-18, TREM-1, IFN-α, procalcitonin, GM-CSF, IL-1α, IFN-γ, TNF a, IL-2, IL-4, IL-5, IL-6, IL-10, IL-12p70, and IL-1β.

IL-4 = assay: Biomarker evaluation in subcutaneous B16F10 murine melanoma model (FIG. 4B); format: in vivo, C57BL/6 mice; conditions: subcutaneously twice a day for 6 days at 0.02, 0.06, 0.2, 0.3, 2, or 6 mg/kg, D4 and D7 after start of dosing
Protocol: as §8, with “4B” for “4A”, “IL-4” for “IL-1β”, “higher” for “lower”
as §9

IL-6 = assay: Biomarker evaluation in subcutaneous B16F10 murine melanoma model (FIG. 4C); format: in vivo, C57BL/6 mice; conditions: subcutaneously twice a day for 6 days at 0.02, 0.06, 0.2, 0.3, 2, or 6 mg/kg, D4 and D7 after start of dosing
Protocol: as §8, with “4C” for “4A”, “IL-6” for “IL-1β”
as §9

IL-1β [7] = assay: Biomarker evaluation in subcutaneous B16F10 murine melanoma model (FIG. 4D); format: in vivo, C57BL/6 mice; conditions: subcutaneously twice a day for 6 days at 0.02, 0.06, 0.2, 0.3, 2, or 6 mg/kg, D4 and D7 after start of dosing
Protocol: as §8, with “4D” for “4A”
as §9

[8] = Group 13: Cyclophosphamide 300 mg/kg ip qd ×1
[9] = Group 13: Cyclophosphamide 300 mg/kg
[10] = Group 9: Cyclophosphomide 300 mg/kg
[11] = Group 2: SR1 0.4862 μg/animal sc bid to end
[12] = Group 3: SR1 4.86 μg/animal sc bid to end
[13] = Group 4: SR1 48.62 μg/animal sc bid to end

N.N.[Cl][Pt][Cl] [Cisplatin]
Tumor Size (mm^3) on Day 28 (B16F10 murine melanoma [1]; B16F10 mice treated with cisplatin, Day 28, historical control study): 862 ± 233 mm^3
body weight (B16F10 murine melanoma [1]; B16F10 mice treated with cisplatin, FIG. 1B, result of the toxicity of cisplatin): significantly reduced body weight
T/C Value (%) on Day 28 (B16F10 murine melanoma [1]; cisplatin vs vehicle, Day 28): 30%
T-C (days) at 800 mm^3 (B16F10 murine melanoma [1]; cisplatin vs vehicle, at tumor size 800 mm^3): >4 days

O=P1(N(CCCl)CCCl)NCCCO1 (centres unmarked) [Cyclophosphamide]
Mean Met Count [2]: 0.5
Percent Inhibition ([2]; doses as E23): 99.5%
Mean BW Nadir ([2]; lowest group mean body weight, as % change from Day 1, Cyclophosphamide nadir on Day 3, doses as E23): −4.3%
Deaths NTR (non-treatment-related death) ([2]; doses as E23): 0
Deaths TR (treatment-related death) ([2]; doses as E23): 0
Mean Met Count [3, 8]: 2
Inhibition (%) [3, 8]: 99%
Mean BW Nadir ([3]; Group 13: Cyclophosphamide 300 mg/kg, % change from Day 1, nadir Day 2): −8.0%
Deaths NTR [3, 9]: 0
Deaths TR [3, 9]: 0
Inhibition (%) [4, 10]: 100%
Number of metastasis foci on day 13 (Mean ± SEM) [4, 10]: 0 ± 0

thymosin alpha 1 (Ac-SDAAVDTSSEITTKDLKEKKEVVEEAEN) [TA1, synthetic version sold as ZADAXIN (thymalfasin); code-named SR1]
tumor growth compared with vehicle treated group (B16F10 murine melanoma [5]; all doses tested, FIG. 2 and FIG. 3): reduced tumor growth
tumor growth compared with vehicle treated group (FIG. 3) (B16F10 murine melanoma [5]; several different doses, all tested doses): statistically significant reduced tumor growth
mean tumor size (B16F10 murine melanoma [5]; study I, TA1 0.2 mg/kg bid i.p. for 7 days): 1,148 mm^3
tumor growth delay (B16F10 murine melanoma [5]; study I, TA1 0.2 mg/kg): 1.5 days
T/C value (B16F10 murine melanoma [5]; study I, TA1 0.2 mg/kg): 57.56%
mean tumor size (B16F10 murine melanoma [5]; study I, TA1 2 mg/kg bid i.p. for 7 days): 1,384 mm^3
tumor growth delay (B16F10 murine melanoma [5]; study I, TA1 2 mg/kg): 0.5 days
T/C value (B16F10 murine melanoma [5]; study I, TA1 2 mg/kg): 69.36%
tumor growth (B16F10 murine melanoma [5]; study I, TA1 6 mg/kg, decrease didn't reach a significant difference): can delay tumor growth
weight changes by group (B16F10 murine melanoma [5]; thymosin treated B16F10 mice): no significant weight changes
IL-1β levels compared to vehicle treated groups (IL-1β [6]): lower
IL-4 levels compared to vehicle treated groups (IL-4): higher
IL-6 levels compared to vehicle treated groups (IL-6): lower
IL-1β levels compared to vehicle treated groups (FIG. 4D) (IL-1β [7]): lower
Mean Met Count [2]: 72.5
metastases to lung in melanoma model ([2]; Study I): decreases metastases to lung
Percent Inhibition ([2]; doses as E23): 31.5%
Deaths NTR (non-treatment-related death) ([2]; doses as E23): 0
Deaths TR (treatment-related death) ([2]; doses as E23): 0
Mean Met Count [3, 11]: 186
Inhibition (%) [3, 11]: −17%
Deaths NTR ([3]; Group 2: SR1 0.4862 μg/animal): 0
Deaths TR ([3]; Group 2: SR1 0.4862 μg/animal): 0
Mean Met Count [3, 12]: 182
Inhibition (%) [3, 12]: −14%
Deaths NTR ([3]; Group 3: SR1 4.86 μg/animal): 0
Deaths TR ([3]; Group 3: SR1 4.86 μg/animal): 0
Mean Met Count [3, 13]: 167
Inhibition (%) [3, 13]: −5%
Deaths NTR ([3]; Group 4: SR1 48.62 μg/animal): 0
Deaths TR ([3]; Group 4: SR1 48.62 μg/animal): 0
Inhibition (%) ([4]; Group 3: TA1 0.486 μg/mouse): 20.35%
Number of metastasis foci on day 13 (Mean ± SEM) ([4]; Group 3: TA1 0.486 μg/mouse): 92 ± 9
Inhibition (%) ([4]; Group 4: TA1 4.86 μg/mouse): 41.83%
Number of metastasis foci on day 13 (Mean ± SEM) ([4]; Group 4: TA1 4.86 μg/mouse): 67 ± 12
Inhibition (%) ([4]; Group 5: TA1 48.6 μg/mouse): 42.26%
Number of metastasis foci on day 13 (Mean ± SEM) ([4]; Group 5: TA1 48.6 μg/mouse): 66 ± 10
